# Measurements as given in US20030191088A1, “Novel therapeutic agents interfering in neutrophil migration” (priority 1998, published 2003).
# What was measured:
# pneumococcal meningitis = pneumococcal meningitis model in rabbits, intravenous GXM; format: in vivo
# healthy rabbits = experiment: Animal toxicity of intravenous GXM in healthy rabbits; format: in vivo; conditions: intravenous administration, doses ranging from 0.5 to 50 mg
# Source text: In experiments, it was investigated whether GXM is toxic in healthy animals.
# [1] = test system: neutrophil migration (chemotaxis) towards IL-8; conditions: in vitro, GXM added directly to the leukocytes; cited from earlier work
# neutrophils = conditions: cited from earlier work
# [2] = biological target: CD18 (β subunit of LFA-1) (Homo sapiens, UniProt P05107); conditions: cited from earlier work
# neutrophil L-selectin = conditions: cited from earlier work
# [3] = purified form; cited from earlier work
# [4] = pneumococcal meningitis rabbit model, i.v. administration
# [5] = rabbits, intravenous administration, in comparison to control rabbits
# Chain of CD18 (β subunit of LFA-1) (P05107 23-769): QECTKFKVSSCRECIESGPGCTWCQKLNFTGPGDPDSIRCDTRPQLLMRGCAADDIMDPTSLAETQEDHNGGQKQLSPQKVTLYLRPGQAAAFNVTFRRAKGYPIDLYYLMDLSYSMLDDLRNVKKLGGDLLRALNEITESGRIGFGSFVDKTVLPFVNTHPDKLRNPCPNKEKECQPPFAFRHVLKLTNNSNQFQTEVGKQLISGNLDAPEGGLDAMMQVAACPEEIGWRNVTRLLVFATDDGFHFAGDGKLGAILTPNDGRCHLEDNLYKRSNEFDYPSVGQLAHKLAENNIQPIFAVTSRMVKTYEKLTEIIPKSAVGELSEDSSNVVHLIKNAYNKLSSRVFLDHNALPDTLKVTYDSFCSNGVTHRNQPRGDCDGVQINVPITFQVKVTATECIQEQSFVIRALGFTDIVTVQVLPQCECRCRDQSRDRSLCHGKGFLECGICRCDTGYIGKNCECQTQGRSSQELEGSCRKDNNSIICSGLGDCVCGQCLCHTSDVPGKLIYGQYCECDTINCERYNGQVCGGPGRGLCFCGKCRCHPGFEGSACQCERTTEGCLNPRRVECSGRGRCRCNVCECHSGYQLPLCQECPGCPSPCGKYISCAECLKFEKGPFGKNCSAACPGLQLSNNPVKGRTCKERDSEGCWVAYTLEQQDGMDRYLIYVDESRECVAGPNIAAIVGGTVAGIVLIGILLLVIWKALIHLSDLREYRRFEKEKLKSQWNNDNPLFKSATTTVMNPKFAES
substance,measurement,setting,value
glucuronoxylomannan [GXM],toxicity and tolerability in the pneumococcal meningitis rabbit model,pneumococcal meningitis; i.v. administration,non-toxic and well tolerated
same,GXM in CSF,pneumococcal meningitis; [4],detectable
same,brain toxicity,pneumococcal meningitis; [4],No demonstrable brain toxicity
same,TNF-α levels in the CSF,pneumococcal meningitis; [5],reduces TNF-α levels in the CSF
same,entry of leukocytes (PMN) into the CSF and brain,pneumococcal meningitis; [5],delays entry of leukocytes (PMN) into the CSF and brain
same,protection of the brain against damage,pneumococcal meningitis; [5],protects the brains of these rabbits against damage
same,tolerability in healthy rabbits,healthy rabbits,tolerated
same,interference with neutrophil migration (chemotaxis) towards IL-8,[1],interferes with neutrophil migration (chemotaxis) towards IL-8
same,attraction of neutrophils,neutrophils,attract neutrophils itself
same,binding to CD18,[2],can bind to CD18
same,shedding of neutrophil L-selectin,neutrophil L-selectin,can induce shedding of neutrophil L-selectin
same,immunogenicity,[3],poorly immunogenic
